pIC50: −log10 of the molar value. Read-outs that look alike come from different tables or passages of the source. Each block holds one molecule with its values, some of them ahead of it.
Key:
[1] = tested on: human lung adenocarcinoma cells A549; test: Inhibition rate at 10 μM versus chemotherapeutic drugs, A549 (MTT); type: cell-based; conditions: A549, 10 μM of drug
From the text: (§1) As a drug for target therapy, the erlotinib is applicable to a third-line treatment of locally advanced or metastatic non-small cell lung cancer when two or more than two chemotherapies are failed. Currently, the gemcitabine is clinically utilized as the drug of the first-line therapy in treating advanced non-small cell lung cancer and the metastatic breast cancer. […] 1. Experimental cell lines and related chemical reagents: sources and cultivation of the human lung adenocarcinoma cells A549, the human lung squamous carcinoma cell line H460, the human breast carcinoma cell line MCF-7 are described in the above. […] Then the 96-well plates were transferred into the incubator (37° C., 5% CO2) for culture. […] The anti-tumor effects of the above drugs were measured by the MTT assay. The number of viable cells in the negative control groups at 0 hr was taken as a basis to calculate the anti-tumor effects.

[2] = tested on: human lung squamous carcinoma cell line H460; test: Inhibition rate at 10 μM versus chemotherapeutic drugs, H460 (MTT); type: cell-based; conditions: NCI-H460, H460, 10 μM of drug
From the text: as §1

[3] = tested on: human breast carcinoma cell line MCF-7; test: Inhibition rate at 10 μM versus chemotherapeutic drugs, MCF-7 (MTT); type: cell-based; conditions: MCF7, MCF-7, 10 μM of drug
From the text: as §1

[4] = tested on: Human Peripheral Blood Mononuclear Cell (PBMC); test: Toxicity on peripheral blood mononuclear cells (MTT); type: cell-based; conditions: for Absorbance 490 nm, replicate 1 / Absorbance 490 nm, replicate 2 / Absorbance 490 nm, replicate 3 / Absorbance 490 nm, replicate 4 / Mean value (absorbance) / Cell viability (%): 24 hrs, MTT; for Cell viability (%): relative to negative control
Experimental: General operations: normal peripheral blood cells were isolated by Ficoll to obtain mononuclear cells. The mononuclear cells were rinsed by the PBS for three times, and added with IMDM+10% FBS to prepare suspensions. […] The suspensions were then inoculated into 96-well plates, with each hole containing 25 thousands cells per 100 μL of the culture medium, and cultured overnight at 37° C.
Treatment: because the proliferation of the PBMCs is very limited and the PBMCs quickly enter a decline phase. Thus, the cell viability was measured by the MTT assay after 24 hrs of culture. […] The group where PBMCs were treated by the sterile deionized water was selected as the negative control group.
1. Experimental cells: normal peripheral blood cells were isolated by Ficoll to obtain mononuclear cells. The mononuclear cells were rinsed by the PBS for three times, added with IMDM+10% FBS to prepare suspensions, […].
2. […] Then the 96-well plates were transferred into an incubator at 37° C. for culture. […] After another 24 hrs of cultivation, 20 μL of MTT was added to each hole, and the plates were incubated for 3 hrs in the incubator (37° C., 5% CO2). Solution in each hole was then removed and replaced by 150 μL of DMSO.

[5] = tested on: human lung adenocarcinoma cells A549; test: MTT growth inhibition of A549 cells (IC50); type: cell-based; conditions: 48 hrs of treatment
Experimental: (§2) 2. […] Solution in each hole was then removed and replaced by 150 μL of DMSO.

[6] = tested on: human lung squamous carcinoma cells H460; test: MTT growth inhibition of H460 cells (IC50); type: cell-based; conditions: NCI-H460, 48 hrs of treatment
Experimental: as §2

[7] = tested on: human pancreatic cancer cells PANC-1; test: cells; type: cell-based; conditions: 48 hrs of treatment, MTT, read-out: IC50 on the growth of the PANC-1 cells
Experimental: as §2

[8] = tested on: human breast cancer cells MCF-7; test: MTT growth inhibition of MCF-7 cells (IC50); type: cell-based; conditions: MCF7, 48 hrs of treatment
Experimental: as §2

[9] = tested on: human liver cancer cells HepG2; test: MTT growth inhibition of HepG2 cells (IC50); type: cell-based; conditions: 48 hrs of treatment
Experimental: as §2

[10] = tested on: human cervical cancer cells HeLa; test: MTT growth inhibition of HeLa cells (IC50); type: cell-based; conditions: 48 hrs of treatment
Experimental: as §2

[11] = tested on: human lung squamous carcinoma cells H460 xenograft; test: H460 xenograft tumor growth in nude mice; type: in vivo; conditions: 75 mg/kg oral, three times each week
Experimental: 1.1 Preparation of experimental animals: 30 nude mice with equal numbers of females and males were fed in normal conditions in the laboratory for between 3 and 5 days.
Preparation of H460 cells: H460 tumor cells were normally cultured, and diluted using the PBS so as to prepare a suspension of tumor cells having a concentration of 7.5×10^6 tumor cells per milliliter.
1.3 Inoculation of tumor cells: the suspension of the tumor cells was fully shaken and 0.2 mL of the suspension was then sucked by a sterile syringe having a capacity of 1 mL. The tumor cells were then inoculated into armpits of the nude mice via subcutaneous injection. The inoculated mice were then fed for between 2 and 3 days in normal conditions. When the tumor tissue grew to a size with a long axis of approximately 3 mm and a short axis of approximately 2 mm, all the nude mice having the tumor tissues were randomly divided into three groups, which were utilized in subsequent administration experiments.
2.1 Control group: five male mice and five female mice having tumor tissues were orally administered with ultrapure water for three times each week (respectively at Monday, Wednesday, and Friday afternoons), and the administered volume was 0.3 mL for each time.
3.2. Acquisition of sizes of tumor tissues in the nude mice: the sizes of the tumor tissues in the nude mice were measured three times per week (respectively at Monday, Wednesday, and Friday afternoons). An electronic vernier caliper was utilized to measure the long axis and the short axis of the tumor tissues, and an accuracy of the data was 0.01 mm.
3.4 Finish time of the experiments: when the tumor tissues in the nude mice of the control group reach an average size of 1000 mm^3 (Volume=long axis×short axis 2×0.5236), the weights and the sizes of the tumor tissues of the nude mice were recorded, and then the experiments were stopped and the nude mice were treated.
3.5 Treatment of nude mice when finishing the experiments: the nude mice were killed, arranged according to different groups, and photographed. Six representative mice were selected from each group and photographed. Then the tumor tissues were respectively isolated, weighed, placed at corresponding positions, and photographed.

[12] = tested on: rat cardiomyocytes; conditions: for Relative ratio of ATP/total protein, Mean value (%) / Relative ratio of ATP/total protein, replicate 1 / Relative ratio of ATP/total protein, replicate 2 / Relative ratio of ATP/total protein, replicate 3: both, SD, rat
Experimental: General operations: 1-2 day old neonatal SD rats (female or male) were selected and cardiomyocytes were isolated in sterile condition. […] The cardiotoxicity of the above drugs were represented by a ratio of ATP/total protein. […] The group where […] were treated by the sterile deionized water was selected as the negative control group.
1. Experimental cells: 1-2 day old neonatal SD rats (female or male) were selected and sterilized. Then ventricular muscles were collected and digested by trypsin to prepare cardiomyocyte suspensions. The suspensions were cultured in the incubator (37° C., 5% CO2), and primary cardiomyocytes were cultured by differential adhesion.
2. […] After another 6 hrs of cultivation, the culture solution in each hole was replaced by the normal culture solution not containing any drugs, and incubated for 42 hrs in the incubator (37° C., 5% CO2). Solution in each hole was then removed, and cells therein were rinsed by the PBS for three times, digested by the trypsin, and gathered into two parts. One part of the cells was utilized to measure the ATP level by the reporter gene assay, and the other part of the cells was utilized to measure the cellular protein concentration by BAC assay. The ratio of ATP (ng) to the protein concentration (μg) was calculated, and the ratio of each experimental group is divided by the ratio of the contrast group to obtain the relative ratio of ATP/total protein, experimental results were listed in Table 4.

[13] = contrast chemotherapeutic drugs, 10 μM (other concentrations)

SMILES: C#Cc1cccc(Nc2ncnc3cc(OCCOC)c(OCCOC)cc23)c1 [Erlotinib, erlotinib]
inhibition at 10 µM [1]: 30.3%
inhibition at 10 µM [2]: 33.1%

SMILES: Nc1ccn([C@@H]2O[C@H](CO)[C@@H](O)C2(F)F)c(=O)n1 [Gemcitabine, gemcitabine]
inhibition at 10 µM [1]: 6.9%
inhibition at 10 µM [2]: 4.3%
inhibition at 10 µM [3]: 40.1%

SMILES: CC(=O)O[C@H]1C(=O)[C@@]2(C)[C@H]([C@H](OC(=O)c3ccccc3)[C@]3(O)C[C@H](OC(=O)[C@H](O)[C@@H](NC(=O)c4ccccc4)c4ccccc4)C(C)=C1C3(C)C)[C@]1(OC(C)=O)CO[C@@H]1C[C@@H]2O [Paclitaxel, paclitaxel]
inhibition at 10 µM [1]: 28.8%
inhibition at 10 µM [2]: 17.3%
inhibition at 10 µM [3]: 89.6%
Absorbance 490 nm, replicate 1 [4, 13]: 0.712
Absorbance 490 nm, replicate 2 [4, 13]: 0.743
Absorbance 490 nm, replicate 3 [4, 13]: 0.683
Absorbance 490 nm, replicate 4 [4, 13]: 0.650
Mean value (absorbance) [4, 13]: 0.697
Cell viability (%) [4, 13]: 87.2%

pIC50 [5]: 4.83
pIC50 [6]: 4.46
pIC50 [7]: 5.17
pIC50 [8]: 4.71
pIC50 [9]: 4.32
pIC50 [10]: 4.59
Relative ratio of ATP/total protein, Mean value (%) ([12]; 10 μM): 89.87%
Relative ratio of ATP/total protein, replicate 1 ([12]; 10 μM): 90.0%
Relative ratio of ATP/total protein, replicate 2 ([12]; 10 μM): 88.2%
Relative ratio of ATP/total protein, replicate 3 ([12]; 10 μM): 91.4%
Relative ratio of ATP/total protein, Mean value (%) ([12]; 30 μM): 83.33%
Relative ratio of ATP/total protein, replicate 1 ([12]; 30 μM): 85.1%
Relative ratio of ATP/total protein, replicate 2 ([12]; 30 μM): 83.3%
Relative ratio of ATP/total protein, replicate 3 ([12]; 30 μM): 81.6%
Relative ratio of ATP/total protein, Mean value (%) ([12]; 50 μM): 76.03%
Relative ratio of ATP/total protein, replicate 1 ([12]; 50 μM): 77.5%
Relative ratio of ATP/total protein, replicate 2 ([12]; 50 μM): 76.7%
Relative ratio of ATP/total protein, replicate 3 ([12]; 50 μM): 73.9%
SMILES: C[S+]([O-])CCCCN=C=S (centres unmarked) [Sulforaphane, 1-isothiocyanato-4-(methysulfinyl)-butane]
Tumor volume on 1st day ([11]; day 1): 30.55 mm^3
Tumor volume on 3rd day ([11]; day 3): 78.81 mm^3
Tumor volume on 6st day ([11]; day 6): 257.8812 mm^3
Tumor volume on 8th day ([11]; day 8): 389.6022 mm^3
Tumor volume on 10th day ([11]; day 10): 552.7308 mm^3
Absorbance 490 nm, replicate 1 ([4]; 10 μM): 0.702
Absorbance 490 nm, replicate 2 ([4]; 10 μM): 0.633
Absorbance 490 nm, replicate 3 ([4]; 10 μM): 0.705
Absorbance 490 nm, replicate 4 ([4]; 10 μM): 0.593
Mean value (absorbance) ([4]; 10 μM): 0.658
Cell viability (%) ([4]; 10 μM): 82.4%
Absorbance 490 nm, replicate 1 ([4]; 30 μM): 0.655
Absorbance 490 nm, replicate 2 ([4]; 30 μM): 0.616
Absorbance 490 nm, replicate 3 ([4]; 30 μM): 0.58
Absorbance 490 nm, replicate 4 ([4]; 30 μM): 0.628
Mean value (absorbance) ([4]; 30 μM): 0.620
Cell viability (%) ([4]; 30 μM): 77.6%
Absorbance 490 nm, replicate 1 ([4]; 50 μM): 0.663
Absorbance 490 nm, replicate 2 ([4]; 50 μM): 0.621
Absorbance 490 nm, replicate 3 ([4]; 50 μM): 0.610
Absorbance 490 nm, replicate 4 ([4]; 50 μM): 0.610
Mean value (absorbance) ([4]; 50 μM): 0.626
Cell viability (%) ([4]; 50 μM): 78.4%
Effect on the proliferation of the PBMCs ([4]; Table 3 summary): certain effect on the proliferation of the cells

SMILES: O=c1[nH]cc(F)c(=O)[nH]1 [5-FU, 5-fluorouracil]
inhibition at 10 µM [3]: 15.8%
Absorbance 490 nm, replicate 1 [4, 13]: 0.493
Absorbance 490 nm, replicate 2 [4, 13]: 0.484
Absorbance 490 nm, replicate 3 [4, 13]: 0.525
Absorbance 490 nm, replicate 4 [4, 13]: 0.461
Mean value (absorbance) [4, 13]: 0.491
Cell viability (%) [4, 13]: 61.4%

Relative ratio of ATP/total protein, Mean value (%) ([12]; 10 μM): 46.97%
Relative ratio of ATP/total protein, replicate 1 ([12]; 10 μM): 47.3%
Relative ratio of ATP/total protein, replicate 2 ([12]; 10 μM): 43.1%
Relative ratio of ATP/total protein, replicate 3 ([12]; 10 μM): 50.5%
SMILES: COc1cccc2c1C(=O)c1c(O)c3c(c(O)c1C2=O)C[C@@](O)(C(=O)CO)C[C@@H]3O[C@H]1C[C@H](N)[C@H](O)[C@H](C)O1 [Adriamycin, adriamycin]
Absorbance 490 nm, replicate 1 [4, 13]: 0.482
Absorbance 490 nm, replicate 2 [4, 13]: 0.482
Absorbance 490 nm, replicate 3 [4, 13]: 0.496
Absorbance 490 nm, replicate 4 [4, 13]: 0.530
Mean value (absorbance) [4, 13]: 0.498
Cell viability (%) [4, 13]: 62.3%
Toxicity on the cardiomyocytes [12]: obvious toxicity on the cardiomyocytes
